Where a name gives a salt, the structure may show the parent alone. Read-outs that look alike come from different tables or passages of the source.
Legend:
[1] = test system: rats; conditions: rat, in vivo, ip
[2] = target: delta opioid receptor (Homo sapiens, UniProt P41143); test: Filtration binding assay: delta opioid receptor
[3] = target: mu opioid receptor (Homo sapiens, UniProt P35372); test: Filtration binding assay: mu opioid receptor
[4] = target: kappa opioid receptor (Homo sapiens, UniProt P41145); test: Filtration binding assay: kappa opioid receptor
[5] = mean where tested more than once, read-out: Delta IC50
[6] = mean where tested more than once, read-out: Mu IC50
[7] = mean where tested more than once, read-out: Kappa IC50

Sequence of mu opioid receptor (P35372 whole entry): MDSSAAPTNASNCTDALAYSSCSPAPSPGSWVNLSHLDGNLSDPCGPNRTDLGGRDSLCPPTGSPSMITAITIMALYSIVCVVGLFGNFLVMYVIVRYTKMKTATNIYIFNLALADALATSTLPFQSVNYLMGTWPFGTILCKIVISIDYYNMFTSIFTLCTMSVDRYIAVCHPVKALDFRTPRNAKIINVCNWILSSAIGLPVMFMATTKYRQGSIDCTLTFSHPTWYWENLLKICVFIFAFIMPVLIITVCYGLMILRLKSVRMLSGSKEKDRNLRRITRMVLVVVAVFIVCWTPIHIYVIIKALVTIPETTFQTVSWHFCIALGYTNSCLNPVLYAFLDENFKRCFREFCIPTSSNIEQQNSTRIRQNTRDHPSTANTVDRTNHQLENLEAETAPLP
Sequence of delta opioid receptor (P41143 whole entry): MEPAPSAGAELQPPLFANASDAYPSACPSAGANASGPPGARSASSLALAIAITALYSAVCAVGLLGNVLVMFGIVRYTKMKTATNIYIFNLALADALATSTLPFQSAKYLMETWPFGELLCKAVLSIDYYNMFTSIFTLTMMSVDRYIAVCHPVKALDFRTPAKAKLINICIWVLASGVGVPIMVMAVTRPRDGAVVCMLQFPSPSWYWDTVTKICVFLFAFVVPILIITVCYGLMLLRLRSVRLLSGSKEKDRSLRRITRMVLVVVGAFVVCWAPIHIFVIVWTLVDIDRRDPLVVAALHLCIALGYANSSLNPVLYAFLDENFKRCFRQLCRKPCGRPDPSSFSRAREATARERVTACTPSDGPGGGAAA
Sequence of kappa opioid receptor (P41145 whole entry): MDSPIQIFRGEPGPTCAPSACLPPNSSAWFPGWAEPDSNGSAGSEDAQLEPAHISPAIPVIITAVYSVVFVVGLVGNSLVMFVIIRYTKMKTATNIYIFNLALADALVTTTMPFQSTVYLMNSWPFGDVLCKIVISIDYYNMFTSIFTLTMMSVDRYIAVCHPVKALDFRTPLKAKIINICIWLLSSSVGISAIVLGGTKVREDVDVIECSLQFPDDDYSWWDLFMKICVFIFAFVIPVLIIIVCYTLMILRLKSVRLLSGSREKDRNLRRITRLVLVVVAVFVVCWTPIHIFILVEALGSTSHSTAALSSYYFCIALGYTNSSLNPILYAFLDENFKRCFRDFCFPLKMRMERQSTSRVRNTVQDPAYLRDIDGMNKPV

SMILES | IC50 [2] [nM] | IC50 [3] [nM] | IC50 [4] [nM] | Ki [2] [nM] | Ki [3] [nM] | Ki [4] [nM] | also measured
CCCCN(Cc1ccccc1)C[C@H](O)CN1CN(c2ccc(F)cc2)C2(CCN(CC3CCCCCCC3)CC2)C1=O [Compound #64, 3-[3-(Benzyl-butyl-amino)-2-(S)-hydroxy-propyl]-8-cyclooctylmethyl-1-(4-fluoro-phenyl)-1,3,8-triaza-spiro[4.5]decan-4-one] |  |  |  |  |  |  | % Increase Mean No. of Shocks ([1]; 0.3 mg/kg): −10%; % Increase Mean No. of Shocks ([1]; 1 mg/kg): 25%; % Increase Mean No. of Shocks ([1]; 3 mg/kg): 96%; % Increase Mean No. of Shocks ([1]; 10 mg/kg): 150%; % Increase Mean No. of Shocks ([1]; 30 mg/kg): −26%
O=C1N(C[C@@H](O)CN2CCN(c3cccc(C(F)(F)F)c3)CC2)CN(c2ccc(F)cc2)C12CCN(CC1CCCCCCC1)CC2 [Compound #66] | 5930 | 550 | 130 |  |  |  | 
CC(C)(C)OC(=O)N1CCN(C[C@H](O)CN2CN(c3ccc(F)cc3)C3(CCN(CC4CCCCCCC4)CC3)C2=O)CC1 [Compound #73] | > 10000 | 680 | 250 |  |  |  | 
COc1ccc(CCN(C)C[C@@H](O)CN2CN(c3ccc(F)cc3)C3(CCN([C@@H]4Cc5cccc6cccc4c56)CC3)C2=O)cc1OC [Compound #339, (R)-8-Acenaphthen-1-yl-3-(3-{[2-(3,4-dimethoxy-phenyl)-ethyl]-methyl-amino}-(R)-2-hydroxy-propyl)-1-(4-fluoro-phenyl)-1,3,8-triaza-spiro[4.5]decan-4-one] | > 10000 | 210 | 180 |  |  |  | 
CN(C)C[C@@H](O)CN1CN(c2ccc(F)cc2)C2(CCN([C@@H]3Cc4cccc5cccc3c45)CC2)C1=O [Compound #423, (R)-Acenaphthen-1-yl-3-(3-dimethylamino-2-hydroxy-(R)-propyl)-1-(4-fluoro-phenyl)-1,3,8-triaza-spiro[4.5]decan-4-one] |  |  |  |  |  |  | IC50 [2, 5]: > 1000 nM; IC50 [3, 6]: 310 nM; IC50 [4, 7]: 590 nM
NC[C@@H](O)CN1CN(c2ccc(F)cc2)C2(CCN(CC3CCCCCCC3)CC2)C1=O [Compound #620, 3-(3-Amino-2-(R)-hydroxy-propyl)-8-cyclooctylmethyl-1-(4-fluoro-phenyl)-1,3,8-triaza-spiro[4.5]decan-4-one] |  |  |  | > 5000 | 280 | 190 | 
NC[C@@H](O)CN1CN(c2ccccc2)C2(CCN([C@H]3CC[C@@H]4CCCc5cccc3c54)CC2)C1=O [Compound #640, dihydrochloride] |  |  |  | > 5000 | 120 | 210 | 
Cc1cccc2cccc(CN3CCC4(CC3)C(=O)N(C[C@H](O)CNCCCO)CN4c3ccc(F)cc3)c12 [Compound #651, 1-(4-Fluoro-phenyl)-3-[2-(R)-hydroxy-3-(3-hydroxy-propylamino)-propyl]-8-(8-methyl-naphthalen-1-ylmethyl)-1,3,8-triaza-spiro[4.5]decan-4-one] |  |  |  | > 5000 | 670 | 310 | 
CNCCCNC[C@@H](O)CN1CN(c2ccc(F)cc2)C2(CCN(Cc3cccc4cccc(C)c34)CC2)C1=O [Compound #656, 1-(4-Fluoro-phenyl)-3-[2-(R)-hydroxy-3-(3-methylamino-propylamino)-propyl]-8-(8-methyl-naphthalen-1-ylmethyl)-1,3,8-triaza-spiro[4.5]decan-4-one] |  |  |  | > 5000 | 1520 | 420 | 
Cc1cccc2cccc(CN3CCC4(CC3)C(=O)N(C[C@H](O)CNCCCN(C)C)CN4c3ccc(F)cc3)c12 [Compound #666, 3-[3-(3-Dimethylamino-propylamino)-2-(R)-hydroxy-propyl]-1-(4-fluoro-phenyl)-8-(8-methyl-naphthalen-1-ylmethyl)-1,3,8-triaza-spiro[4.5]decan-4-one] |  |  |  | > 5000 | 2590 | 140 | 
O=C1N(C[C@@H](O)CNCC23CC4CC(CC(C4)C2)C3)CN(c2ccc(F)cc2)C12CCN(CC1CCCCCCC1)CC2 [compound 17] | > 10000 | 650 | 250 |  |  |  | 
Cc1cccc(CNC[C@H](O)CN2CN(c3ccc(F)cc3)C3(CCN(CC4CCCCCCC4)CC3)C2=O)c1 [compound 18] | > 10000 | 450 | 280 |  |  |  | 
O=C1N(C[C@@H](O)CNCc2cccc(Br)c2)CN(c2ccc(F)cc2)C12CCN(CC1CCCCCCC1)CC2 [compound 20] | > 10000 | 1280 | 440 |  |  |  | 
COc1cccc(CNC[C@H](O)CN2CN(c3ccc(F)cc3)C3(CCN(CC4CCCCCCC4)CC3)C2=O)c1 [compound 35] | > 10000 | 820 | 660 |  |  |  | 
O=C1N(C[C@@H](O)CNCc2ccccn2)CN(c2ccc(F)cc2)C12CCN(CC1CCCCCCC1)CC2 [compound 39] | > 10000 | 8830 | 3250 |  |  |  | 
Cc1ccc(CNC[C@H](O)CN2CN(c3ccc(F)cc3)C3(CCN(CC4CCCCCCC4)CC3)C2=O)cc1 [compound 41] | > 10000 | 2100 | 250 |  |  |  | 
CCCCN(Cc1ccccc1)C[C@H](O)CN1CN(c2ccccc2)C2(CCN(C3Cc4cccc5c4[C@@H](CCC5)C3)CC2)C1=O (some centres unmarked) [compound 54] | > 10000 | 350 | 110 |  |  |  | 
CN(C)CCN(Cc1ccccc1)C[C@H](O)CN1CN(c2ccc(F)cc2)C2(CCN(CC3CCCCCCC3)CC2)C1=O [compound 63] | 8780 | 3430 | 230 |  |  |  | 
CC1CN(C[C@H](O)CN2CN(c3ccc(F)cc3)C3(CCN(CC4CCCCCCC4)CC3)C2=O)CC(C)O1 (some centres unmarked) [compound 75] | > 10000 | 980 | 300 |  |  |  | 
CC(=O)NC(CSC[C@H](O)CN1CN(c2ccc(F)cc2)C2(CCN(CC3CCCCCCC3)CC2)C1=O)C(=O)O (some centres unmarked) [compound 100] |  |  |  |  |  |  | IC50 [2, 5]: > 10000 nM; IC50 [3, 6]: 230 nM; IC50 [4, 7]: 280 nM

SMILES | IC50 [2] [nM] | IC50 [3] [nM] | IC50 [4] [nM] | Ki [2] [nM] | Ki [3] [nM] | Ki [4] [nM] | also measured
CC(C)(C)N(Cc1ccccc1)C[C@H](O)CN1CN(c2ccc(F)cc2)C2(CCN(Cc3cccc4ccccc34)CC2)C1=O [compound 250] | > 10000 | 1200 | 380 |  |  |  | 
O=C1N(C[C@@H](O)CNCCN2CCOCC2)CN(c2ccc(F)cc2)C12CCN(Cc1cccc3ccccc13)CC2 [compound 251] | > 10000 | 1580 | 450 |  |  |  | 
CCN(Cc1ccc(C)cc1)C[C@H](O)CN1CN(c2ccc(F)cc2)C2(CCN(Cc3cccc4ccccc34)CC2)C1=O [compound 252] | > 10000 | 3700 | 1340 |  |  |  | 
COc1ccc(CCNC[C@H](O)CN2CN(c3ccc(F)cc3)C3(CCN(Cc4cccc5ccccc45)CC3)C2=O)cc1OC [compound 253] | 2160 | 760 | 400 |  |  |  | 
O=C1N(C[C@@H](O)CNCCc2ccc3c(c2)OCO3)CN(c2ccc(F)cc2)C12CCN(Cc1cccc3ccccc13)CC2 [compound 254] | > 10000 | 2830 | 800 |  |  |  | 
COc1cc(CCNC[C@H](O)CN2CN(c3ccc(F)cc3)C3(CCN(Cc4cccc5ccccc45)CC3)C2=O)c([N+](=O)[O-])cc1OC [compound 255] | > 10000 | 2490 | 620 |  |  |  | 
COc1ccc(CCN(C)C[C@H](O)CN2CN(c3ccc(F)cc3)C3(CCN(Cc4cccc5ccccc45)CC3)C2=O)cc1OC [compound 256] | > 10000 | 5450 | 1180 |  |  |  | 
COc1ccc(CCNC[C@H](O)CN2CN(c3ccc(F)cc3)C3(CCN(Cc4ccc5ccccc5c4)CC3)C2=O)cc1OC [compound 261] | > 10000 | 1560 | 270 |  |  |  | 
COc1ccc(CNC[C@H](O)CN2CN(c3ccc(F)cc3)C3(CCN(Cc4cccc5cccc(C)c45)CC3)C2=O)cc1 [compound 398] | > 10000 | > 10000 | 250 |  |  |  | 
O=C1N(C[C@H]2CO2)CN(c2ccc(F)cc2)C12CCN(Cc1ccc3ccccc3c1)CC2 [compound 542] | > 10000 | 160 | 530 |  |  |  | 
CC1(C)[C@H]2CC=C(CN3CCC4(CC3)C(=O)N(C[C@@H](O)CN)CN4c3ccc(F)cc3)[C@@H]1C2 [compound 619] |  |  |  | > 5000 | 140 | 170 | 
COCCCNC[C@H](O)CN1CN(c2ccc(F)cc2)C2(CCN(Cc3cccc4cccc(C)c34)CC2)C1=O [compound 650] |  |  |  | > 5000 | 740 | 460 | 
CNCCCNC[C@H](O)CN1CN(c2ccccc2)C2(CCN([C@H]3CC[C@@H]4CCCc5cccc3c54)CC2)C1=O [compound 658] |  |  |  | > 5000 | 170 | 130 | 
Cc1cccc2cccc(CN3CCC4(CC3)C(=O)N(C[C@H](O)CNCCCNC(=O)OC(C)(C)C)CN4c3ccc(F)cc3)c12 [compound 665] |  |  |  | > 5000 | 2710 | 290 | 
Cc1cccc2cccc(CN3CCC4(CC3)C(=O)N(C[C@H](O)CNCCN(C)C(=O)OC(C)(C)C)CN4c3ccc(F)cc3)c12 [compound 667] |  |  |  | 4140 | 770 | 450 | 
O=C1N(C[C@H](O)CN2C(CO)C(O)C(O)C2CO)CN(c2ccc(F)cc2)C12CCN(C1CCCCCCC1)CC2 (some centres unmarked) [compound 688] |  |  |  | > 5000 | 110 | 160 | 
Cc1cccc2cccc(CN3CCC4(CC3)C(=O)N(C[C@H](O)CN3CCCC3)CN4c3ccc(F)cc3)c12 [compound 705] |  |  |  | > 5000 | 1500 | 710 | 
Cc1cccc2cccc(CN3CCC4(CC3)C(=O)N(C[C@H](O)CN3CC[C@@H](NC(=O)OC(C)(C)C)C3)CN4c3ccc(F)cc3)c12 [compound 710] |  |  |  | > 5000 | 1090 | 360 | 
Cc1cccc2cccc(CN3CCC4(CC3)C(=O)N(CC(O)CN3CCC(N(C)C(=O)OC(C)(C)C)C3)CN4c3ccc(F)cc3)c12 (centres unmarked) [compound 721] |  |  |  | > 5000 | 590 | 170 | 
CC1(C)[C@H]2CC=C(CN3CCC4(CC3)C(=O)N(C[C@@H]3CO3)CN4c3ccc(F)cc3)[C@@H]1C2 [compound 727] |  |  |  | > 5000 | 120 | 210 | 

— patent US7582649B2, “Hydroxy alkyl substituted 1,3,8-triazaspiro[4.5]decan-4-one derivatives useful for the treatment of ORL-1 receptor mediated disorders” (Janssen Pharmaceutica, NV, priority 2002, dated 2009)
